Results taken from ChEMBL document CHEMBL1201862, “PubChem BioAssay data set” (2004).
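Following 48 hours of exposure in 96-well plates, responses at five concentrations were used to interpolate endpoints linearly. The concentration for 50% growth inhibition is given as GI50.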 The source made the active and inactive calls. Rule as the data show it: active = GI50 up to about 1.1 µM and inactive = higher.

What was measured:
Assay in all cases: growth of human tumour cells (NCI), 48 h
[1] = system: SNB-19
[2] = system: UO-31
[3] = system: HL-60
[4] = system: MCF7
[5] = system: OVCAR-4
[6] = system: SF-539
[7] = system: SK-MEL-5
[8] = system: OVCAR-3
[9] = system: NCI-H460
[10] = system: IGROV-1
[11] = system: K562
[12] = system: SK-OV-3
[13] = system: OVCAR-8
[14] = system: HCT-116
[15] = system: EKVX
[16] = system: UACC-62
[17] = system: HCT-15
[18] = system: MDA-MB-231
[19] = system: COLO 205
[20] = system: SK-MEL-28

| SMILES | GI50 [1] | GI50 [2] | GI50 [3] | GI50 [4] | GI50 [5] | GI50 [6] | GI50 [7] | GI50 [8] | GI50 [9] | GI50 [10] | GI50 [11] | GI50 [12] | GI50 [13] | GI50 [14] | GI50 [15] | GI50 [16] | GI50 [17] [µM] | GI50 [18] | GI50 [19] | GI50 [20] |
| --- | --- | --- | --- | --- | --- | --- | --- | --- | --- | --- | --- | --- | --- | --- | --- | --- | --- | --- | --- | --- |
| COC(=O)C(=O)C(C(=O)C(=O)Nc1ccccc1C(C)=O)c1nc2ccc(C(=O)c3ccccc3)cc2nc1O (stereo unspecified) | 52 µM (inactive) | 26.7 µM (inactive) | > 100 µM (inactive) | 19.4 µM (inactive) | > 100 µM (inactive) | 76.7 µM (inactive) | 62.8 µM (inactive) | 73.6 µM (inactive) | 58.9 µM (inactive) | 20.2 µM (inactive) | 39.4 µM (inactive) | > 100 µM (inactive) | 39.6 µM (inactive) | > 100 µM (inactive) | 92.5 µM (inactive) | > 100 µM (inactive) | 74 | 78 µM (inactive) | – | – |
| CCC1=[N+](CC)CCN1CC | > 100 µM (inactive) | > 100 µM (inactive) | > 100 µM (inactive) | > 100 µM (inactive) | > 100 µM (inactive) | > 100 µM (inactive) | > 100 µM (inactive) | > 100 µM (inactive) | > 100 µM (inactive) | > 100 µM (inactive) | > 100 µM (inactive) | > 100 µM (inactive) | > 100 µM (inactive) | > 100 µM (inactive) | > 100 µM (inactive) | – | > 100 | > 100 µM (inactive) | > 100 µM (inactive) | > 100 µM (inactive) |
| CN(C)c1ccc2c(c1)oc(=O)c1ccccc12 | 14.3 µM (inactive) | – | 3.69 µM (inactive) | 5.08 µM (inactive) | 12.3 µM (inactive) | 14 µM (inactive) | 10.7 µM (inactive) | 4.61 µM (inactive) | 10.4 µM (inactive) | 13.7 µM (inactive) | 4.52 µM (inactive) | – | 11.1 µM (inactive) | 12.3 µM (inactive) | 16.7 µM (inactive) | 13.6 µM (inactive) | 12.6 | 16.5 µM (inactive) | 12.2 µM (inactive) | 17.5 µM (inactive) |
| O=C1N=C(c2ccccc2)O/C1=C\c1ccccc1 | > 100 µM (inactive) | > 100 µM (inactive) | > 100 µM (inactive) | > 100 µM (inactive) | > 100 µM (inactive) | > 100 µM (inactive) | > 100 µM (inactive) | > 100 µM (inactive) | > 100 µM (inactive) | > 100 µM (inactive) | – | > 100 µM (inactive) | > 100 µM (inactive) | > 100 µM (inactive) | – | > 100 µM (inactive) | > 100 | > 100 µM (inactive) | > 100 µM (inactive) | > 100 µM (inactive) |
| O=c1[nH]nc(Cc2ccc(Cl)cc2)n1/N=C/c1ccco1 | 25.4 µM (inactive) | > 100 µM (inactive) | > 100 µM (inactive) | 3.15 µM (inactive) | > 100 µM (inactive) | 27.4 µM (inactive) | – | > 100 µM (inactive) | > 100 µM (inactive) | – | > 100 µM (inactive) | 80.2 µM (inactive) | 66.5 µM (inactive) | 93.1 µM (inactive) | > 100 µM (inactive) | 74 µM (inactive) | > 100 | 46.1 µM (inactive) | > 100 µM (inactive) | > 100 µM (inactive) |
| CC(=O)/C(=C/n1c(=S)sc2ccccc21)C(=O)Nc1ccccc1C | > 100 µM (inactive) | 79.6 µM (inactive) | 31.6 µM (inactive) | > 100 µM (inactive) | > 100 µM (inactive) | > 100 µM (inactive) | 39.7 µM (inactive) | 59.4 µM (inactive) | > 100 µM (inactive) | 59.8 µM (inactive) | – | > 100 µM (inactive) | > 100 µM (inactive) | > 100 µM (inactive) | > 100 µM (inactive) | > 100 µM (inactive) | > 100 | > 100 µM (inactive) | > 100 µM (inactive) | > 100 µM (inactive) |
| CCCC(=O)OCC1OC(n2cc(F)c(=O)[nH]c2=O)C(F)C1OC(=O)CCC (stereo unspecified) | – | 69.7 µM (inactive) | > 100 µM (inactive) | 0.6 µM (active) | 5.61 µM (inactive) | 1.63 µM (inactive) | 36.8 µM (inactive) | 41.5 µM (inactive) | 3.78 µM (inactive) | 58.6 µM (inactive) | 56.1 µM (inactive) | > 100 µM (inactive) | 19.6 µM (inactive) | 21.5 µM (inactive) | 50 µM (inactive) | 25.9 µM (inactive) | > 100 | > 100 µM (inactive) | 36.4 µM (inactive) | > 100 µM (inactive) |
| CCOC(=O)C(Cc1c2ccccc2cc2ccccc12)(NC(C)=O)C(=O)OCC | > 78.5 µM (inactive) | > 85.9 µM (inactive) | 34.4 µM (inactive) | 2.99 µM (inactive) | 40.4 µM (inactive) | > 64.6 µM (inactive) | > 50.6 µM (inactive) | > 64.7 µM (inactive) | > 100 µM (inactive) | > 45 µM (inactive) | > 69.8 µM (inactive) | > 100 µM (inactive) | 67.6 µM (inactive) | 48.9 µM (inactive) | > 100 µM (inactive) | – | > 49.3 | > 23.1 µM (inactive) | > 53.2 µM (inactive) | > 100 µM (inactive) |
| CN(C)CCn1c(=O)oc2cc(C(=O)CN3CCOCC3)ccc21 | > 100 µM (inactive) | 88.1 µM (inactive) | > 100 µM (inactive) | > 100 µM (inactive) | – | > 100 µM (inactive) | > 100 µM (inactive) | > 100 µM (inactive) | > 100 µM (inactive) | > 100 µM (inactive) | > 100 µM (inactive) | > 100 µM (inactive) | > 100 µM (inactive) | > 100 µM (inactive) | > 100 µM (inactive) | > 100 µM (inactive) | > 100 | > 100 µM (inactive) | > 100 µM (inactive) | > 100 µM (inactive) |
| C1=N\CCN2CCN(CC/N=C\c3ccc(cc3)OCc3cccc(n3)COc3ccc/1cc3)CC2 | > 50 µM (inactive) | > 50 µM (inactive) | > 50 µM (inactive) | > 50 µM (inactive) | > 50 µM (inactive) | > 50 µM (inactive) | – | 28.8 µM (inactive) | > 50 µM (inactive) | > 50 µM (inactive) | > 50 µM (inactive) | > 50 µM (inactive) | > 50 µM (inactive) | > 50 µM (inactive) | > 50 µM (inactive) | > 50 µM (inactive) | > 50 | > 50 µM (inactive) | > 50 µM (inactive) | > 50 µM (inactive) |
| N#Cc1c(-c2ccc([N+](=O)[O-])cc2)cc(-c2ccc(Nc3ccnc4cc(Cl)ccc34)cc2)[nH]c1=O | 63.8 µM (inactive) | > 100 µM (inactive) | > 100 µM (inactive) | > 100 µM (inactive) | > 100 µM (inactive) | > 100 µM (inactive) | – | > 100 µM (inactive) | > 100 µM (inactive) | > 100 µM (inactive) | > 100 µM (inactive) | > 100 µM (inactive) | > 100 µM (inactive) | > 100 µM (inactive) | > 100 µM (inactive) | > 100 µM (inactive) | > 100 | > 100 µM (inactive) | > 100 µM (inactive) | > 100 µM (inactive) |
| CCOC(=O)C(C)c1nc2cc(F)c(F)cc2[nH]c1=O (stereo unspecified) | > 100 µM (inactive) | > 100 µM (inactive) | > 100 µM (inactive) | > 100 µM (inactive) | > 100 µM (inactive) | > 100 µM (inactive) | > 100 µM (inactive) | > 100 µM (inactive) | > 100 µM (inactive) | – | > 100 µM (inactive) | > 100 µM (inactive) | > 100 µM (inactive) | > 100 µM (inactive) | > 100 µM (inactive) | > 100 µM (inactive) | > 100 | > 100 µM (inactive) | > 100 µM (inactive) | > 100 µM (inactive) |
| CCOC(=O)/C(=N\Nc1ccc(-n2c(C)nc3ccc(Br)cc3c2=O)cc1)C(C)=O | 52.1 µM (inactive) | 29.8 µM (inactive) | 5.32 µM (inactive) | 50.4 µM (inactive) | – | 38.8 µM (inactive) | 13.1 µM (inactive) | > 100 µM (inactive) | 99.3 µM (inactive) | > 100 µM (inactive) | 35.2 µM (inactive) | > 100 µM (inactive) | 55.2 µM (inactive) | 43.6 µM (inactive) | 72.1 µM (inactive) | 46.9 µM (inactive) | 64.4 | 31.9 µM (inactive) | 54.3 µM (inactive) | 88.7 µM (inactive) |
| CC1CC[C@]2(C(=O)O)CCC3(C)C(=C2[C@H]1C)C=CC1[C@@]2(C)CC[C@H](O)C(C)(C)C2CC[C@]13C (stereo partly specified) | 30.5 µM (inactive) | – | 18.6 µM (inactive) | 30 µM (inactive) | 30.1 µM (inactive) | 17.3 µM (inactive) | 21.4 µM (inactive) | 17.5 µM (inactive) | 21.6 µM (inactive) | 27.9 µM (inactive) | 14.7 µM (inactive) | 16.6 µM (inactive) | 27.7 µM (inactive) | 17.6 µM (inactive) | 32.8 µM (inactive) | 42.2 µM (inactive) | 27.4 | 21.3 µM (inactive) | 44.4 µM (inactive) | 28.3 µM (inactive) |
| CC(C)=C[C@@H]1C[C@H](C)c2c(O)cc(C)c3c2C1=C(C)C(=O)C3=O [ELISABATIN A] | 14.4 µM (inactive) | – | 21.9 µM (inactive) | 22.8 µM (inactive) | 10.9 µM (inactive) | 17.9 µM (inactive) | 13.6 µM (inactive) | 14.5 µM (inactive) | 18 µM (inactive) | 16.7 µM (inactive) | 17.2 µM (inactive) | 16.7 µM (inactive) | 16.9 µM (inactive) | 15.2 µM (inactive) | 14.3 µM (inactive) | 14.7 µM (inactive) | 13.6 | 15.6 µM (inactive) | 17.7 µM (inactive) | 15.5 µM (inactive) |
